According to patent US7071180B2, “Certain arylaliphatic and heteroaryl-aliphatic piperazinyl pyrazines and their use in the treatment of serotonin-related diseases” (Biovitrum AB, priority 1999, dated 2006):
Structures can show the parent of a compound that is named as a salt.

SMILES | melting point
c1cnc(N2CCNCC2)c(OCCOc2ccc3cc[nH]c3c2)n1 [Example 142, 6-(2-{[3-(1-piperazinyl)-2-pyrazinyl]oxy}ethoxy)-1H-indole] | 111 to 113 °C
c1cc(OCCOc2nccnc2N2CCNCC2)c2ccncc2c1 (as salt: maleate) [Example 134, 2-(5-Isoquinolinyloxy)ethyl 3-(1-piperazinyl)-2-pyrazinyl ether] | 178 to 180.5 °C
Fc1cc2nc(OCCOc3cccnc3)c(N3CCNCC3)nc2cc1F (as salt: maleate) [Example 163, 2-[2-(3-Pyridinyloxy)ethoxy]-3-(1-piperazinyl)-6,7-difluoroquinoxaline] | 110 to 115 °C
C[C@@H]1CNC[C@H](C)N1c1nccnc1OCCOc1cccnc1 (as salt: fumarate) [Example 179, cis-2,6-Dimethyl-1-{3-[2-(3-pyridinyloxy)ethoxy]-2-pyrazinyl}piperazine] | 157 °C (dec.)
Nc1cccc2ccc(OCCOc3nccnc3N3CCNCC3)cc12 (as salt: maleate) [Example 145, 7-(2-{[3-(1-piperazinyl)-2-pyrazinyl]oxy}ethoxy)-1-naphthylamine] | 120 °C (dec.)
Cc1nc2cc(OCCOc3nccnc3N3CCNCC3)ccc2s1 (as salt: hydrochloride) [Example 143, 2-Methyl-5-(2-{[3-(1-piperazinyl)-2-pyrazinyl]oxy}ethoxy)-1,3-benzothiazole] | 188 to 190 °C
COCc1cccc(OCCOc2nccnc2N2CCNCC2)c1 (as salt: maleate) [Example 109, 2-{2-[3-(Methoxymethyl)phenoxy]ethoxy}-3-(1-piperazinyl)pyrazine] | 114 to 115 °C
Nc1nc2c(OCCOc3nccnc3N3CCNCC3)cccc2o1 (as salt: fumarate) [Example 21, 4-(2-{[3-(1-piperazinyl)-2-pyrazinyl]oxy}ethoxy)-1,3-benzoxazol-2-amine] | 138 to 140 °C
Cc1nc(OCCOc2ccccc2)c(N2CCNCC2)nc1C (as salt: hydrochloride) [Example 183, 5,6-Dimethyl-2-(2-phenoxyethoxy)-3-(1-piperazinyl)pyrazine] | 138 to 140 °C
c1cncc(OCCOc2nsnc2N2CCNCC2)c1 (as salt: maleate) [Example 209, 1-{4-[2-(3-Pyridinyloxy)ethoxy]-1,2,5-thiadiazol-3-yl}piperazine] | 116 to 118 °C
Clc1ccc(OCCOc2nc3ccccc3nc2N2CCNCC2)cc1 [Example 39, 2-[2-(4-Chlorophenoxy)ethoxy]-3-(1-piperazinyl)quinoxaline] | 108 to 112 °C
c1cnc2c(OCCOc3nccnc3N3CCNCC3)cccc2c1 [Example 138, 2-(8-Quinolinyloxy)ethyl 3-(1-piperazinyl)-2-pyrazinyl ether] | 98 to 100 °C
c1cc(OCCOc2nccnc2N2CCNCC2)c2cccnc2c1 (as salt: maleate) [Example 135, 2-(5-Quinolinyloxy)ethyl 3-(1-piperazinyl)-2-pyrazinyl ether] | 132 to 135 °C
COc1ccc(C)cc1OCCOc1nccnc1N1CCNCC1 (as salt: maleate) [Example 144, 2-[2-(2-Methoxy-5-methylphenoxy)ethoxy]-3-(1-piperazinyl)pyrazine] | 148 to 149 °C
c1cnc2ccc(OCCOc3nccnc3N3CCNCC3)cc2c1 (as salt: maleate) [Example 136, 2-(6-Quinolinyloxy)ethyl 3-(1-piperazinyl)-2-pyrazinyl ether] | 167 to 169 °C
CC(=O)Nc1cccc(OCCOc2nccnc2N2CCNCC2)c1 (as salt: maleate) [Example 119, 2-[2-(3-Acetamidophenoxy)ethoxy]-3-(1-piperazinyl)pyrazine] | 154 to 155 °C

Now from value to molecule:

melting point | SMILES
133 to 135 °C | O=[N+]([O-])c1ccc2c(c1)OC(COc1nccnc1N1CCNCC1)CO2 (stereo not shown) [Example 146, 2-(7-Nitro-2,3-dihydro-1,4-benzodioxin-2-ylmethoxy)-3-(1-piperazinyl)pyrazine]
186 to 188 °C | c1ccc2c(c1)CCC(COc1nccnc1N1CCNCC1)C2 (stereo not shown) (as salt: fumarate) [Example 207, 3-(1-piperazinyl)-2-pyrazinyl 1,2,3,4-tetrahydro-2-naphthalenylmethyl ether]
158 to 160 °C | c1cnc(N2CCNCC2)c(OCCOc2ccc3c(c2)OCCO3)n1 (as salt: hydrochloride) [Example 210, 2-[2-(2,3-Dihydro-1,4-benzodioxin-6-yloxy)ethoxy]-3-(1-piperazinyl)pyrazine]
134 to 137 °C | NC(=O)c1cccc(OCCOc2nccnc2N2CCNCC2)c1 (as salt: maleate) [Example 110, 3-(2-{[3-(1-piperazinyl)-2-pyrazinyl]oxy}ethoxy)benzamide]
145.9 to 146.3 °C | Clc1ccc(OCCOc2nccnc2N2CCNCC2)cn1 (as salt: maleate) [Example 203, 2-{2-[(6-Chloro-3-pyridinyl)oxy]ethoxy}-3-(1-piperazinyl)pyrazine]
134 to 136 °C | Cc1cccc(CCCOc2nccnc2N2CCNCC2)n1 (as salt: maleate) [Example 128, 2-[3-(6-Methyl-2-pyridinyl)propoxy]-3-(1-piperazinyl)pyrazine]
90 to 91 °C | c1cc(CCCOc2nccnc2N2CCNCC2)ccn1 (as salt: maleate) [Example 127, 2-(1-piperazinyl)-3-[3-(4-pyridinyl)propoxy]pyrazine]
50 °C (dec.) | Cc1ncccc1OCCOc1nccnc1N1CCNCC1 (as salt: hydrochloride) [Example 154, 2-(2-Methyl-3-pyridyloxy)ethyl 3-(1-piperazinyl)-2-pyrazinyl ether]
98 to 99 °C | c1cc(OCCOc2nccnc2N2CCNCC2)c2c(c1)OCCO2 [Example 79, 2-(2,3-Dihydro-1,4-benzodioxin-5-yloxy)ethyl 3-(1-piperazinyl)-2-pyrazinyl ether]
130 to 136 °C | c1cnc(N2CCNCC2)c(OCC2CCCO2)n1 (stereo not shown) (as salt: hydrochloride) [Example 124, 2-(1-Piperazinyl)-3-(tetrahydro-2-furanylmethoxy)pyrazine]
201 °C | CSc1ncccc1OCCOc1nccnc1N1CCNCC1 (as salt: fumarate) [Example 197, 2-(2-{[2-(Methylsulfanyl)-3-pyridinyl]oxy}ethoxy)-3-(1-piperazinyl)pyrazine]
202 °C | Brc1ncccc1OCCOc1nccnc1N1CCNCC1 (as salt: fumarate) [Example 195, 2-{2-[(2-Bromo-3-pyridinyl)oxy]ethoxy}-3-(1-piperazinyl)pyrazine]
165 to 166 °C | N#Cc1ccccc1OCCOc1nccnc1N1CCNCC1 (as salt: maleate) [Example 96, 2-(2-Cyanophenoxy)ethyl 3-(1-piperazinyl)-2-pyrazinyl ether]
123.2 to 123.5 °C | OCc1cccc(OCCOc2nccnc2N2CCNCC2)c1 (as salt: maleate) [Example 108, [3-(2-{[3-(1-piperazinyl)-2-pyrazinyl]oxy}ethoxy)phenyl]methanol]
132 to 133 °C | COc1ccccc1CCCOc1nccnc1N1CCNCC1 (as salt: maleate) [Example 211, 2-[3-(2-Methoxyphenyl)propoxy]-3-(1-piperazinyl)pyrazine]
